What all share (assay type): biochemical
Experiment [1] deals with ACE1.
The next experiment has as its target T1, ACE2 (Mus musculus, UniProt Q8R0I0).
T1 construct: Kidney extract (source of ACE1 & ACE2); from tissue; host or cells: kidney extract
Nature of the experiment: SELDI-TOF-MS ACE assay, kidney extract incubated with AngI (ACE2 activity). Particulars: AngI + kidney extract + MLN 4760. As to the method:
FIG. 3: SELDI-TOF-MS ACE assay. Kidney extract (source of ACE1 & ACE2) were incubated with AngI A: kidney extract control; B: AngI; C: AngI+kidney extract, showing peptides generated from ACE1 & ACE2; D: AngI+kidney extract+MLN 4760 (ACE2 inhibitor).

Experiment [2] has as its system ACE1. The source holds these as a separate data set.

T1 sequence (Q8R0I0 18-805): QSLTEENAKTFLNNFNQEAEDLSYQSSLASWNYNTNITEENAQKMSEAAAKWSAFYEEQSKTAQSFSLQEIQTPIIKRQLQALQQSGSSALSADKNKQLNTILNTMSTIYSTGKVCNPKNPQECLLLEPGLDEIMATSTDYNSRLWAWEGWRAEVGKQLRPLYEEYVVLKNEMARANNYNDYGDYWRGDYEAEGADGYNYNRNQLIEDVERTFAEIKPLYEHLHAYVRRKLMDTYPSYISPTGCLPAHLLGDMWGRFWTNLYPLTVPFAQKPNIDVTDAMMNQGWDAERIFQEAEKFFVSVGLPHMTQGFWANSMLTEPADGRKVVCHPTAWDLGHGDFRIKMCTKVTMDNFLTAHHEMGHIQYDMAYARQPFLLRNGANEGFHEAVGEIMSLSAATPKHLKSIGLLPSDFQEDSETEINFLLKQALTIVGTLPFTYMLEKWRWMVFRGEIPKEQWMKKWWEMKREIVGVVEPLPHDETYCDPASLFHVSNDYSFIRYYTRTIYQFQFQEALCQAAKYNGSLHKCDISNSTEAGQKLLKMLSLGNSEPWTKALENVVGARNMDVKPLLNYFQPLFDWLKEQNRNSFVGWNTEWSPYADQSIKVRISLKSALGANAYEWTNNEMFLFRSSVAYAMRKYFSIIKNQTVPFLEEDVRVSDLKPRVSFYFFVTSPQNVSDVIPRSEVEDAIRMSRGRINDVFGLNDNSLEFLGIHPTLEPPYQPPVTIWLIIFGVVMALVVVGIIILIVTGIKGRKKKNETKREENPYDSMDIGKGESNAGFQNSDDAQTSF

As to `CC(C)C[C@H](N[C@@H](Cc1cncn1Cc1cc(Cl)cc(Cl)c1)C(=O)O)C(=O)O` [MLN 4760], in the experiment with ACE1 [1], the AngII level entry is on record as “increased” and the “effect on ACE1” value is “without affecting ACE1”. In addition, the “cleavage of AngI to Ang (1-7)” value at ACE2 is on record as “inhibited”. The “effect on the formation of AngII” value in the experiment on ACE1 [2] is given as “no effect”.

These data come from patent publication US20060257861A1 (priority 2005, published 2006).
